# Assay results from paper PMC5947527 (Chemical Science, 2015).
# Entries after “also recorded” stand apart in the source; their conditions may differ. Non-standard residues stand in square brackets, D forms with d. Residues, ends and D or L forms follow the SMILES beside them. *: point of attachment. Decanoyl(3,6,9-trioxa) = COCCOCCOCC(=O)*; NBD = O=[N+]([O-])c1ccc(*)c2nonc12; dNle = CCCC[C@@H](N)C(=O)O; Nle = CCCC[C@H](N)C(=O)O; AEEA = NCCOCCOCC(=O)O; Ahx = NCCCCCC(=O)O
# Tested on: not listed separately
# Assay: Stability in ARDS bronchoalveolar lavage fluid (MALDI-TOF MS)
# Type: in vitro ADME, human
# Details: human ARDS BALF pooled from three patients vs PBS, 5 and 30 min, MALDI-TOF MS
# Description: To determine the ability of UBI-3 to image bacteria in the continued presence of a complex inflammatory environment, bacteria were labelled with UBI-3 in the presence of broncho-alveolar lavage fluid (BALF) retrieved from ventilated ICU patients with Acute Respiratory Distress Syndrome (ARDS). ARDS BALF was utilised as ARDS is a severe life threatening pulmonary syndrome, characterized by a massive proteolytic and oxidative inflammatory environment within the distal alveolar region.[14] […] To design out susceptible amino acid cleavage points, a number of modifications were made (Table 1) and the functional consequences assessed. The chemical approaches pursued to improve resistance to degradation included replacing amino acids at the cleavage positions with non-natural amino acids such as N-methyl or D-amino acids,[15] and cyclisation of the peptide,[16] which could have the added benefit of enhancing affinity towards bacterial membrane.[17]
# The Arg–Arg bonds were identified as the prominent position of degradation (Fig. 5) and Compounds UBI-4–9 (Table 1) were synthesised with a variety of substitutions around the degradation sites. The susceptible peptide bonds at P1–P2 and P7–P8 were blocked using N-MeArg (UBI-4), and to further mask these positions, a long polyethylene glycol (PEG) chain and/or a D-amino acid were positioned at the carboxylic and/or amino termini (UBI-5–7).
# We hypothesized that cyclisation of the sequence would allow for greater stability and also improve bacterial affinity and therefore cyclic variants of UBI-3 were synthesized (UBI-10 and UBI-11), which were both found to be stable in BALF for 5 minutes (Fig. 7 and S3 ESI ^†). […] However, these studies also highlighted the degradation of UBI-10 at 10 minutes, guiding the temporal constraints of Smartprobe delivery and optical imaging.
# Fig. 7 UBI-10 remains stable in ARDS BALF at 5 minutes. (A) Structure of UBI-10 with breakdown products in ARDS BALF. […] TEXT PRINTED IN THE PICTURE: UBI-10: Molecular Weight: 2118.41 | Fragment A: Molecular Weight: 1923.18 | Fragment B: Molecular Weight: 1980.23 DOUBTS OF THE COPYIST ABOUT THIS PICTURE: UBI-10, Molecular Weight: very small print, 2118.41 is the best reading; the digits 8 and 4 are uncertain / Fragment A, Molecular Weight: very small print, 1923.18 is the best reading; the digits 9, 3 and 8 are uncertain / Fragment B, Molecular Weight: very small print, 1980.23 is the best reading; the digits 9, 8 and 3 are uncertain […]
# Supplementary Information
# A Labelled-Ubiquicidin Antimicrobial Peptide for Immediate In Situ Optical Detection of Live Bacteria in Human Alveolar Lung Tissue
# Ahsan R Akram, Nicolaos Avlonitis, Annamaria Lilienkampf, Ana M Perez-Lopez, Neil McDonald, Sunay V Chankeshwara, Emma Scholefield, Christopher Haslett, Mark Bradley & Kevin Dhaliwal.
# Figure S1: MALDI-TOF MS spectra for a stability study of UBI-3 in PBS and in ARDS BALF […]
# Figure S2. MALDI-TOF MS spectra of modified analogues UBI-4 to UBI-9 in Phosphate Buffered Saline and ARDS BALF over a period of 5 and 30min.
# Figure S3: MALDI-TOF MS spectra of UBI-11 in Phosphate Buffered Saline vs ARDS BALF […]
# Figure S4. Quantified fluorescence of confocal microscopy images of the compounds UBI-3, UBI-5 and UBI-10 on three bacteria and fluorescence retention following a PBS wash.
# Figure S5: Fibered confocal fluorescence microscopy imaging of human lung and Calcein AM stained Methicillin sensitive S. aureus.
# Experimental Details including Tables M1-4, Figure M1 and HPLC Chromatograms.
# (also on this page, place not known: Electronic Supplementary Material (ESI) for Chemical Science. This journal is © The Royal Society of Chemistry 2015)
# (1 picture or pasted object on this page, not shown here) […]
# BALF Retrieval: Bronchoalveolar lavage was performed in the Intensive Care Unit (ICU), as previously described. S5 Pooled samples from three patients were used for stability assays. […]
# Exposure to 488 nm light was limited to 5% […]
row,Molecule,stability in ARDS BALF
1,CCCC[C@H](NC(=O)[C@H](CCCNC(=N)N)NC(=O)[C@H](CCCNC(=N)N)NC(=O)[C@H](CCCCN)NC(=O)[C@H](C)NC(=O)[C@H](CCCNC(=N)N)NC(=O)CNC(=O)[C@@H](NC(=O)CCCCCNc1ccc([N+](=O)[O-])c2nonc12)[C@@H](C)O)C(=O)N[C@@H](CCC(N)=O)C(=O)N[C@@H](Cc1ccc(O)cc1)C(=O)N[C@@H](CC(N)=O)C(=O)N[C@@H](CCCNC(=N)N)C(=O)N[C@@H](CCCNC(=N)N)C(=O)NCCOCCOCC(=O)NCCOCCOCC(N)=O [UBI-7] ({NBD-Ahx}-TGRAKRR[Nle]QYNRR[AEEA][AEEA]-NH2),did not improve stability in ARDS BALF; also recorded: Unstable in ARDS BALF at 30 minutes

# Tested on: methicillin-sensitive Staphylococcus aureus
# Assay: Confocal labelling of MSSA with quantified fluorescence
# Type: cell-based
# Details: MSSA, 10 μM, fluorescence normalized to UBI-3, mean ± SEM, n ≥ 3
# Description: Fig. 6 Confocal Images of compounds UBI-3 to 9 with quantified fluorescence. Panels show methicillin-sensitive Staphylococcus aureus incubated with UBI-3 to 9 (all 10 μM) with quantification of bacterial fluorescence normalized to UBI-3 (bars represent mean (±SEM), n ≥ 3, ns = not significant, *** = p < 0.001, * = p < 0.05, scale bar = 10 μm).
# Fig. 8 Confocal images and quantification of cyclic variants when compared to UBI-3. Panels show methicillin-sensitive Staphylococcus aureus incubated with cyclic UBI compounds (all 10 μM) with quantification of bacterial fluorescence normalized to UBI-3 (bars represent mean (±SEM), n ≥ 3, ns = not significant, ** = p < 0.01, scale bar = 10 μm).
# Bacterial Culture and Labelling: Bacteria used were K. pneumoniae (ATCC BAA1706) ATCC, E. coli (ATCC 25922) ATCC, A. baumannii (J3433) Clinical Isolate, P. aeruginosa (J3284) Clinical Isolate, Methicillin Resistant S. aureus (MRSA) (ATCC25923) ATCC and Methicillin Sensitive S. aureus (MSSA) (ATCC 252) ATCC. All bacteria were grown on Lysogeny broth (LB) agar and from a single bacterial colony placed into 10ml of LB and incubated at 37°C for 16 hours in an orbital shaker.
# Cultures were centrifuged at 4000rpm for 5 minutes and the pellet resuspended in 1ml phosphate buffered saline (PBS, Life Technologies). Following three further washes in PBS the cultures were reconstituted to 1 OD595 nm. Bacteria were counterstained with 5µM Syto 82 orange fluorescent nucleic acid stain (Invitrogen, CA, USA) in a shaking heat block at 37 °C for 20 minutes. For FCFM bacteria were stained with 1µM Calcein AM (Sigma, MO, USA) for 30 minutes at 37 °C. Counterstained bacteria were washed in PBS to remove excess dye. […]
# Confocal Analysis and Fluorescence Quantification: 8-Well Lab-Tek II Confocal Chambers (VWR, PA, USA) were coated in fibronectin (for neutrophil experiments) or poly-d-lysine (for bacteria) at 37 °C for 20 minutes, then washed in PBS prior to bacterial innoculation. For co-culture assays, neutrophils were seeded on fibronectin coated wells at 1 x 10^5 neutrophils per well for 20 minutes and non-adherent neutrophils aspirated. Bacteria were added to each chamber to a final concentration of 0.5 OD595 nm with the desired final concentration of Smartprobe. A laser-scanning confocal imaging system (LSM510; Carl Zeiss, Jena, Germany), incorporating an upright Axioskop FS2 microscope (63× objective) was used for image acquisition and processing. Exposure to 488 nm light was limited to 5% of the maximum laser power in order to minimize toxicity. ‘Green’ fluorescence (for FAM and NBD) was excited with a dedicated 488 nm line and emitted light detected with meta detector (500-530 nM).
# Syto nuclear and dyes were excited with a dedicated 543 nm line, and emitted light detected with meta detector (570-610 nM). Fields of view were chosen based on the counterstain and at least three fields of view were recorded for each condition. For affinity assays, following initial imaging, the fluid was aspirated and two gentle washes with PBS were performed. The chamber was re-imaged on confocal.
# Analysis was with ImageJ (version 1.46r, National Institutes of Health, USA); the Syto channel was automatically thresholded (MaxEntropy, with a set threshold 0-47) and an ROI generated from this. The […]
# mean fluorescence intensity on the probe channel within this ROI was quantified. Data presented represents the mean of three experiments, from each of which three separate fields of view were assessed. All experiments were performed at least three times unless otherwise stated and results expressed as mean ± SEM. Data was analysed by unpaired t-test and significance was determined as p<0.05 (GraphPad Prism version 5.01 for Windows, GraphPad Software, San Diego California USA).
# Ex vivo Human Lung and FCFM Procedure: Human lung samples were obtained from patients undergoing surgical resection for lung carcinoma. All images were obtained on sections of normal lung […]
row,Molecule,bacterial labelling (fluorescence compared with UBI-3)
1,"CCCC[C@H](NC(=O)[C@H](CCCNC(=N)N)NC(=O)[C@H](CCCNC(=N)N)NC(=O)[C@H](CCCCN)NC(=O)[C@H](C)NC(=O)[C@H](CCCNC(=N)N)NC(=O)CNC(=O)[C@@H](NC(=O)[C@H](CCCCNc1ccc([N+](=O)[O-])c2nonc12)NC(=O)COCCOCCOC)[C@@H](C)O)C(=O)N[C@@H](CCC(N)=O)C(=O)N[C@@H](Cc1ccc(O)cc1)C(=O)N[C@@H](CC(N)=O)C(=O)N[C@@H](CCCNC(=N)N)C(=O)N[C@@H](CCCNC(=N)N)C(=O)NCCOCCOCC(=O)NCCOCCOCC(N)=O [UBI-6] ({Decanoyl(3,6,9-trioxa)}-K(NBD)TGRAKRR[Nle]QYNRR[AEEA][AEEA]-NH2)",loss of labelling on bacteria; also recorded: loss of labelling efficacy
2,CCCC[C@H](NC(=O)[C@H](CCCNC(=N)N)NC(=O)[C@H](CCCNC(=N)N)NC(=O)[C@H](CCCCN)NC(=O)[C@H](C)NC(=O)[C@H](CCCNC(=N)N)NC(=O)CNC(=O)[C@@H](NC(=O)CCCCCNc1ccc([N+](=O)[O-])c2nonc12)[C@@H](C)O)C(=O)N[C@@H](CCC(N)=O)C(=O)N[C@@H](Cc1ccc(O)cc1)C(=O)N[C@@H](CC(N)=O)C(=O)N[C@@H](CCCNC(=N)N)C(=O)N[C@@H](CCCNC(=N)N)C(=O)NCCOCCOCC(=O)NCCOCCOCC(N)=O [UBI-7] ({NBD-Ahx}-TGRAKRR[Nle]QYNRR[AEEA][AEEA]-NH2),loss of bacterial labelling; also recorded: loss of labelling efficacy
3,CCCC[C@@H](NC(=O)[C@@H](CCCNC(=N)N)NC(=O)[C@@H](CCCNC(=N)N)NC(=O)[C@@H](CCCCN)NC(=O)[C@@H](C)NC(=O)[C@@H](CCCNC(=N)N)NC(=O)CNC(=O)[C@H](NC(=O)COCCOCCNc1ccc([N+](=O)[O-])c2nonc12)[C@H](C)O)C(=O)N[C@H](CCC(N)=O)C(=O)N[C@H](Cc1ccc(O)cc1)C(=O)N[C@H](CC(N)=O)C(=O)N[C@H](CCCNC(=N)N)C(=O)N[C@H](CCCNC(=N)N)C(=O)O [UBI-8] ({NBD-AEEA}-[dT]G[dR][dA][dK][dR][dR][dNle][dQ][dY][dN][dR][dR]-OH),loss of labelling on bacteria; also recorded: loss of labelling efficacy
4,"CCCC[C@@H](NC(=O)[C@@H](CCC(N)=O)NC(=O)[C@@H](Cc1ccc(O)cc1)NC(=O)[C@@H](CC(N)=O)NC(=O)[C@@H](CCCNC(=N)N)NC(=O)[C@@H](CCCNC(=N)N)NC(=O)COCCOCCOC)C(=O)N[C@H](CCCNC(=N)N)C(=O)N[C@H](CCCNC(=N)N)C(=O)N[C@H](CCCCN)C(=O)N[C@H](C)C(=O)N[C@H](CCCNC(=N)N)C(=O)NCC(=O)N[C@@H](C(=O)N[C@@H](CCCCNc1ccc([N+](=O)[O-])c2nonc12)C(=O)O)[C@H](C)O [UBI-9] ({Decanoyl(3,6,9-trioxa)}-[dR][dR][dN][dY][dQ][dNle][dR][dR][dK][dA][dR]G[dT]K(NBD)-OH)",loss of labelling on bacteria; also recorded: loss of labelling efficacy

# Tested on: not listed separately
# Assay: broncho-alveolar lavage fluid (BALF) retrieved from ventilated ICU patients with Acute Respiratory Distress Syndrome (ARDS); pooled samples from three patients
# Details: human, up to 30min
not cleaved,Molecule,cleaved bond
Stable in ARDS BALF,MeO-PEG- D- Arg- D- Arg- D- Asn- D- Tyr- D- Gln- D- Nle- D- Arg- D- Arg- D- Lys- D- Ala- D- Arg-Gly- D- Thr-Lys(NBD)-OH,
,NBD-Ahx-Thr-Gly-Arg-Ala-Lys-Arg-Arg-Nle-Gln-Tyr-Asn-Arg-Arg-NH2,"ArgP8-ArgP7, major, <5 min; also recorded: ArgP2-ArgP1, major, <5 min"
Stable in ARDS BALF,NBD-Ahx-Thr-Gly-Arg-Ala-Lys-Arg-MeArg-Nle-Gln-Tyr-Asn-Arg-Arg-D-Phe-D-Val-NH2,
Stable in ARDS BALF,NBD-Ahx-Thr-Gly-Arg-Ala-Lys-MeArg-MeArg-Nle-Gln-Tyr-Asn-MeArg-MeArg-NH2,
,NBD-Ahx-cyclo[Lys-Thr-Gly-Arg-Ala-Lys-Arg-Arg-Nle-Gln-Tyr-Asn-Arg-Arg-Gly],"Thr-Gly, first_seen, 10min; also recorded: Arg-Arg, major, 20min"
stability in BALF for over 30 minutes,NBD-Ahx-cyclo[Lys-Thr-Gly-Arg-Ala-Lys-Arg-Arg-Nle-Gln-Tyr-Asn-Arg-MeArg-Gly],
Stable in ARDS BALF,NBD-PEG-D-Thr-Gly-D-Arg-D-Ala-D-Lys-D-Arg-D-Arg-D-Nle-D-Gln-D-Tyr-D-Asn-D-Arg-D-Arg-OH,
